From patent US5756145A, “Durable, Resilient and effective antimicrobial coating for medical devices and method of coating therefor” (priority 1995, dated 1998)
Where a name gives a salt, the structure may show the parent alone.

Assays:
[1] = test system: bacterial and fungal organisms; conditions: cited from earlier work; for bacteriostatic/bactericidal nature / spectrum of antimicrobial activity: general statement; for effect of organic matter on effectiveness: organic matter such as blood
protein synthesis = conditions: general statement; cited from earlier work
Candida albicans [2] = assay: zones of inhibition on agar plates, Candida albicans (Examples 1, 2, 5, 7); conditions: Init., triple layer, Table 7
Description: (§1) Selected single layer and triple layer coated cylinders were then placed on agar plates that had been freshly overlaid with one of the microorganisms shown below in Table 1.
(§2) The coated cylinders were then removed from the serum and placed on agar plates that had been freshly overlaid with one of the microorganisms shown below in Table 2.
(§3) The devices and coating solution were preheated to 45° C. After coating the devices were allowed to dry for about four hours. […] The devices were then allowed to dry for an additional two hours. The resilient coated layer was applied over the durable coated layer by dipping the devices for approximately 5-10 seconds in a collodion solution. The devices were then allowed to dry for an additional two hours. Selected coated devices were then incubated in human serum at 37° C. for one and three weeks.

Pseud. aeruginosa = assay: zones of inhibition on agar plates, Pseud. aeruginosa (Examples 1, 2, 5, 7); conditions: P. aerug, Init., triple layer, Table 7
Description: as §1, §2, §3

Staph. epidermidis = assay: zones of inhibition on agar plates, Staph. epidermidis (Examples 1, 2, 5, 7); conditions: S. epidermidis, Init., triple layer, Table 7
Description: as §1, §2, §3

Staphylococcus aureus = conditions: cited from earlier work
Escherichia coli = conditions: cited from earlier work
Pseudomonas aeruginosa = conditions: cited from earlier work
Candida albicans [3] = conditions: cited from earlier work
[4] = light; cited from earlier work
[5] = cited from earlier work; for solubility in organic solvents: organic solvents/solutions
[6] = test system: bacterial DNA-dependent RNA polymerase; conditions: general statement; cited from earlier work

CN(C)c1ccc(O)c2c1C[C@H]1C[C@H]3[C@H](N(C)C)C(O)=C(C(N)=O)C(=O)[C@@]3(O)C(O)=C1C2=O [Minocycline]
bacteriostatic/bactericidal nature [1]: primarily bacteriostatic
spectrum of antimicrobial activity [1]: active against a wide range of gram-negative and gram-positive organisms
inhibition of protein synthesis (protein synthesis): inhibiting protein synthesis

CC[C@H]1OC(=O)[C@H](C)[C@@H](O[C@H]2C[C@@](C)(OC)[C@@H](O)[C@H](C)O2)[C@H](C)[C@@H](O[C@@H]2O[C@H](C)C[C@H](N(C)C)[C@H]2O)[C@](C)(O)C[C@@H](C)C(=O)[C@H](C)[C@@H](O)[C@]1(C)O [Erythromycin]
spectrum of antimicrobial activity [1]: active against a variety of gram-positive and gram-negative bacteria
inhibition of protein synthesis (protein synthesis): inhibition of protein synthesis without affecting nucleic acid synthesis

[H]/N=C(\N/C(=N/[H])NCCCCCCNC(=N)NC(=N)Nc1ccc(Cl)cc1)Nc1ccc(Cl)cc1 [Chlorhexidine]
bacteriostatic/bactericidal nature [1]: very rapid bactericidal activity
spectrum of antimicrobial activity [1]: broad range of microorganisms, including gram-positive bacteria (such as staphylococci, Enterococcus species), gram-negative bacteria (such as Escherichia coli and Pseudomonas aeruginosa) and Candida species
effect of organic matter on effectiveness [1]: not affected by the presence of organic matter
Zones of inhibition (Candida albicans [2]): 26 m.m.
Zones of inhibition (Pseud. aeruginosa): 20 m.m.
Zones of inhibition (Staph. epidermidis): 22 m.m.

Cn1sccc1=O [Methylisothiazolone, 2-Methylisothiazolone Hydrochloride]
MIC (Staphylococcus aureus): 80 µg/mL
MIC (Escherichia coli): 40 µg/mL
MIC (Pseudomonas aeruginosa): 80 µg/mL
MIC (Candida albicans [3]): 320 µg/mL
bacteriostatic/bactericidal nature [1]: bacteriostatic
spectrum of antimicrobial activity [1]: broad spectrum antimicrobial activity
photosensitivity [4]: photosensitive
solubility in acetic acid ([5]; acetic acid (rifampin: acetic aqueous solutions)): not soluble
solubility in formic acid ([5]; formic acid): soluble
solubility in organic solvents [5]: soluble

CCOc1ccc2ccccc2c1C(=O)N[C@@H]1C(=O)N2[C@@H]1SC(C)(C)[C@@H]2C(=O)O [Nafcillin]
spectrum of antimicrobial activity [1]: effective against both penicillin-G-sensitive and penicillin-G-resistant strains of Staphylococcus aureus as well as against pneumococcus, beta-hemolytic streptococcus, and alpha streptococcus

Cc1ccc(C(C)C)c(O)c1 [Thymol, 5-methyl-2 isopropyl phenol]
bacteriostatic/bactericidal nature [1]: bacteriostatic
spectrum of antimicrobial activity [1]: broad spectrum antimicrobial activity against gram-positive bacteria (such as staphylococci and Enterococcus species), gram-negative bacteria (such as Escherichia coli and Pseudomonas aeruginosa) and Candida species

CO[C@H]1/C=C/O[C@@]2(C)Oc3c(C)c(O)c4c(O)c(c(/C=N/N5CCN(C)CC5)c(O)c4c3C2=O)NC(=O)/C(C)=C\C=C\[C@H](C)[C@H](O)[C@@H](C)[C@@H](O)[C@@H](C)[C@H](OC(C)=O)[C@@H]1C [Rifampin]
bacteriostatic/bactericidal nature [1]: bactericidal
spectrum of antimicrobial activity [1]: broad spectrum activity against a wide range of gram-positive and gram-negative bacteria
inhibition of bacterial DNA-dependent RNA polymerase [6]: inhibits bacterial DNA-dependent RNA polymerase activity

Cc1cc(O)cc(C)c1Cl [Chloroxylenol, 4-chloro, 3,5-dimethyl phenol]
spectrum of antimicrobial activity [1]: good antimicrobial activity against gram-positive bacteria and fungi, and fair activity against gram-negative bacteria
effect of organic matter on effectiveness [1]: minimally affected by organic matter
Zones of inhibition (Candida albicans [2]): 28 m.m.
Zones of inhibition (Pseud. aeruginosa): 13 m.m.
Zones of inhibition (Staph. epidermidis): 32 m.m.

Oc1c(Cl)cc(Cl)c(Cl)c1Cc1c(O)c(Cl)cc(Cl)c1Cl [Hexachlorophene]
bacteriostatic/bactericidal nature [1]: bacteriostatic
spectrum of antimicrobial activity [1]: active against staphylococci and other gram-positive bacteria
solubility in organic solvents [5]: soluble
solubility in water ([5]; water): soluble

CC1=CCC(C(C)(C)O)CC1 (stereo not drawn) [α-Terpineol, α-α-4-trimethyl-3-cyclohexine-1-methanol]
bacteriostatic/bactericidal nature [1]: bacteriostatic
spectrum of antimicrobial activity [1]: broad spectrum antimicrobial activity against gram-positive bacteria (such as staphylococci and Enterococcus species), gram-negative bacteria (such as Escherichia coli and Pseudomonas aeruginosa) and Candida species
